# Reference: US5527555A, “Brazzein sweetener” (Wisconsin Alumni Research Foundation, priority 1994, dated 1996)
# Assays:
# [1] = sweetness by tasting, compared with sucrose solution; assay type: in vivo
# [2] = Thermostability assay (incubation at 98° C., sweetness then tasted); assay type: physicochemical
# Method: A thermostability assay was done (2 hours at 98° C.) at a concentration of 0.5 mg/ml Brazzein at the following different pH levels: 2 (Glycine-HCL buffer); 4 (Acetate buffer); 6 (Phosphate buffer); and 8 (Tris-HCL buffer). All of the buffers were in concentration of 50 mM. After the incubations, the samples were cooled down to room temperature and the sweetness of the samples was tasted with a comparison to the original protein solution.
substance,measurement,setting,value
"Brazzein: sweet protein isolated from Pentadiplandra brazzeana Baillon, about 6,473 Daltons, amino acid sequence SEQ ID NO:4 (EDKCKKVYENYPVSKCQLANQCNYDCKLDKHARSGECFYDEKRNLQCICDYCEY)",sweetness relative to sucrose,[1]; 2% solution compared with a 2% sucrose solution,"about 2,000 times"
same,temporal sweetness response,"[1]; taste, duration of sweetness",relatively long lasting sweetness response
same,thermostability,"[2]; 2 hours at 98° C., 0.5 mg/ml, pH 2, 4, 6 and 8 (50 mM buffers), sweetness tasted against original protein solution",excellent thermostability
same,sweetness after heat incubation,[2]; two hours of incubation at 98° C.,still tasted very sweet
